Assay results reported in the NIST ThermoML archive (doi:10.1021/je0602465).
Several values for one entry are separate records, joined by “and”; a condition that tells them apart may be missing. Equal entries are not always repeated.

Details: Liquid; for vapor or sublimation pressure: low residence time flow method

OCCCCCCO [1,6-hexanediol]
Details | Critical pressure [kPa] | Critical temperature [K] | vapor or sublimation pressure [kPa]
523.2 K | – | – | 93.33
552.8 K | – | – | 199.3
597.1 K | – | – | 500.6
637.1 K | – | – | 1001
685.1 K | – | – | 2007
717.6 K | – | – | 3024
740 K | – | – | 4012
740.4 K | – | – | 4054
Low residence time flow calorimetry | 4080 | – | –
Low residence time flow method | – | 740.8 | –

Oc1ccccc1O [1,2-benzenediol]
Details | vapor or sublimation pressure
511.3 K | 81.47 kPa
535.7 K | 147 kPa
547 K | 187.4 kPa
577.6 K | 349.1 kPa
595.6 K | 487.9 kPa
597.3 K | 499.4 kPa
621.8 K | 742.9 kPa
640.1 K | 988.9 kPa
640.9 K | 992.8 kPa
692.7 K | 1996 kPa and 1995 kPa
711.5 K | 2496 kPa
727.5 K | 2993 kPa
727.9 K | 2997 kPa
753.5 K | 4007 kPa
754.8 K | 3993 kPa

C1CNCCN1 [piperazine]
Details | Critical pressure [kPa] | Critical temperature [K] | vapor or sublimation pressure [kPa]
445.2 K | – | – | 189.5
471.6 K | – | – | 343.6
488.9 K | – | – | 492.3
528.1 K | – | – | 992.6
573.6 K | – | – | 1994
629.7 K | – | – | 3997
649.3 K | – | – | 4994
653.7 K | – | – | 5243
655 K | – | – | 5348
Low residence time flow calorimetry | 5420 | 656.3 | –

Oc1cccc(O)c1 [1,3-benzenediol]
Details | Critical pressure [kPa] | Critical temperature [K] | vapor or sublimation pressure [kPa]
546.7 K | – | – | 84.54
582.6 K | – | – | 192.6
631.7 K | – | – | 494.8
675.9 K | – | – | 994.4
728.6 K | – | – | 1994
790.6 K | – | – | 3994
813.7 K | – | – | 4999
831.3 K | – | – | 5995
Low residence time flow calorimetry | 6240 | – | –
Low residence time flow method | – | 836 | –
